Test results taken from US10975042B2, “Method for purifying an amino acid-n-carboxy anhydride” (SHIN-ETSU CHEMICAL CO., LTD., priority 2018, dated 2021).

Test: Long-term storage stability of NCA, purity by DSC
Format: physicochemical
Conditions: DSC
Experimental: In Examples and Comparative Examples, the purity of each NCA was measured using differential scanning calorimeter (DSC) in accordance with 2.52 thermal analysis method of The Japanese Pharmacopoeia, 17th ed. (2.4.4. measurement of purity). The measurement was performed using Thermo plus EVO DSC8230 (manufactured by Rigalu Corporation) as a measurement apparatus with the sample amount of 1 mg at a temperature increasing rate of 1° C./minute. Incidentally, it is conceived that precise measurement cannot be guaranteed unless the purity is 98 mol % or more according to 2.52 thermal analysis method of The Japanese Pharmacopoeia, 17th ed. (2.4.4. measurement of purity).
Each purified NCA was evaluated for long-term storage stability. […] Regarding the conditions of −20±5° C., the results of purity measured by DSC at after a half year, after 1 year, and after 2 years are shown. Regarding the conditions of 0 to 5° C., the results of purity measured by DSC at after 1 month, 2 months, and a half year are shown. As a comparison, commercially available NCA shown by the general formula (A) (manufactured by Isochem), the purity of which is more than 98 mol % based on the DSC measurement, was evaluated and shown as Comparison 1. This NCA has a residual chlorine concentration of 0.030 mass % and belongs to a lot with extremely low residual chlorine concentration in commercially available NCAs.

[1] = initial value of storage test at 0 to 5° C.
[2] = initial value of storage test at −20±5° C.

Structure (SMILES) | Purity after purification [1] | Purity after purification [2] | Purity after 1 month from purification (storage at 0 to 5° C.) | Purity after 2 months from purification (storage at 0 to 5° C.) | Purity after a half year from purification (storage at 0 to 5° C.) | Purity after 1 year from purification (storage at −20±5° C.) | Purity after 2 years from purification (storage at −20±5° C.) | Purity after a half year from purification (storage at −20±5° C.)
O=C(CCC1NC(=O)OC1=O)OCc1ccccc1 (stereo not drawn) [(B)] | 99.40 mol % | 99.40 mol % | 99.39 mol % | 99.41 mol % | 99.41 mol % | 99.41 mol % | 99.40 mol % | 99.40 mol %
CC(=O)OCCCC1NC(=O)OC1=O (stereo not drawn) [(C)] | 99.20 mol % | 99.20 mol % | 99.22 mol % | 99.21 mol % | 99.19 mol % | 99.22 mol % | 99.21 mol % | 99.22 mol %
COCOCCCC1NC(=O)OC1=O (stereo not drawn) [(D)] | 99.00 mol % | 99.00 mol % | 98.98 mol % | 99.00 mol % | 98.95 mol % | 99.00 mol % | 99.05 mol % | 98.95 mol %
O=C1NC(CCCOCc2ccccc2)C(=O)O1 (stereo not drawn) [(E)] | 98.90 mol % | 98.90 mol % | 98.90 mol % | 98.88 mol % | 98.86 mol % | 98.88 mol % | 98.89 mol % | 98.89 mol %
CC(C)(C)OCCCC1NC(=O)OC1=O (stereo not drawn) [(F)] | 99.10 mol % | 99.10 mol % | 99.12 mol % | 99.10 mol % | 99.10 mol % | 99.12 mol % | 99.12 mol % | 99.12 mol %
CC(C)(C)[Si](OCCC1NC(=O)OC1=O)(c1ccccc1)c1ccccc1 (stereo not drawn) [(I)] | 99.35 mol % | 99.35 mol % | 99.35 mol % | 99.36 mol % | 99.36 mol % | 99.36 mol % | 99.36 mol % | 99.35 mol %

Now from value to compound:

Purity after purification [1] | Purity after purification [2] | Purity after 1 month from purification (storage at 0 to 5° C.) | Purity after 2 months from purification (storage at 0 to 5° C.) | Purity after a half year from purification (storage at 0 to 5° C.) | Purity after 1 year from purification (storage at −20±5° C.) | Purity after 2 years from purification (storage at −20±5° C.) | Purity after a half year from purification (storage at −20±5° C.) | Structure (SMILES)
99.25 mol % | 99.25 mol % | 99.24 mol % | 99.25 mol % | 99.26 mol % | 99.26 mol % | 99.25 mol % | 99.25 mol % | O=C(CC1NC(=O)OC1=O)OCc1ccccc1 (stereo not drawn) [(G)]
99.18 mol % | 99.18 mol % | 99.19 mol % | 99.19 mol % | 99.18 mol % | 99.16 mol % | 99.16 mol % | 99.17 mol % | CC(C)(C)OC(=O)CC1NC(=O)OC1=O (stereo not drawn) [(H)]
99.10 mol % | 99.10 mol % | 99.12 mol % | 99.10 mol % | 99.08 mol % | 99.12 mol % | 99.10 mol % | 99.15 mol % | O=C1CNC(=O)O1 [(J)]
